Legend:
[1] = system: platelet-rich plasma (PRP); test: Recalcification time of rat platelet-rich plasma; conditions: 30 μM, vs 2% DMSO control
Protocol: Example 5: Recalcification Time
1. Materials and Instruments
Isoflurane (Hana Pharm, cat. #9008), Isotonic Sodium Chloride Injection (Daihan Pharm, cat. #331), Citrate-dextrose solution (Sigma-Aldrich, cat. #C3821), Calcium chloride solution (Sigma-Aldrich, cat. #21115), 22G Syringe 10 mL (Koreavaccine), Dimethyl sulfoxide (Sigma-Aldrich, cat. #D5879), Apixaban (AK scientific, cat. #X1060), 96 Well Cell Culture Plates (SPL Life Sciences, cat. #30096), Synergy H4 Hybrid Microplate Reader (BioTek), Combi R515 Multi-purpose Centrifuge (Hanil Scientific), BS-06 Shaking & Heating Baths (JEIO TECH), and PST-60HL-4 Plate Shaker-Thermostat (Bio-San)
Seven-week-old male SD Rat (ORIENT BIO.) were maintained under controlled conditions of temperature (22±2° C.) and 12-h light/12-h dark cycle. Rats were housed in the pathogen-free facility of the Laboratory Animal Research Center in Ildong Pharmaceutical Co. Ltd. All procedures on animals were conducted in accordance with the relevant national regulatory guidelines and individual experiments approved by the Ildong Pharmaceutical Co. Ltd., Institutional Animal Care and Use Committee (IACUC) (approval No.: A2106-3, 2108-4).
The ability of test compounds to interfere with plasma coagulation, in the presence of platelets, was analyzing by measuring the recalcification time of rat plasma. The blood of animals was collected into 15 mL tubes containing Citrate-dextrose solution (9:1 v/v) before performing the assays. For recalcification time, platelet-rich plasma (PRP) samples were obtained by centrifugation at 360×g for 10 minutes. And the PRP were preincubated for 5 minutes (37° C.). In a 96 well microplate, test compounds (2 μL) were treated in 98 μL of platelet rich plasma. After mixing with a pipette, it was incubated at 37° C. for 15 minutes. The reaction was started by addition of 200 μL of pre-warmed CaCl2) (16 mM). Immediately, put the microplate in a microplate reader and the signals were measured by the following steps.
(1) 405 nm wavelength absorbance signals were recorded in every 10 seconds at 37° C.
(2) Basal absorbance signals were recorded for 0 second.
The signal variance of each of the test compounds was obtained by the following step.
(1) Background signals (t=O) were subtracted from recording values, and the resulting values were converted to change values. The values at 0 second were set to be zero.
The retardation time of test compound were calculated by the following formula:
Retardation time (sec)=[log EC50 (test sample)−log EC50 (DMSO control)]
As described above, a DMSO control group is a group to which 2% DMSO was treated.
The assay result is shown in Table 5, where compounds (30 μM) having less than 20 seconds of retardation time are marked by ‘C’; the compounds (30 μM) having retardation time of 20 seconds or more to less than 50 seconds are marked by ‘B’; and the compounds (30 μM) having retardation time of 50 seconds or more are marked by ‘A’.

[2] = target: T1, human ANO6 (Homo sapiens, UniProt Q4KMQ2); test: LACT C2 assay (phosphatidylserine scramblase function assay); format: cell-based; conditions: FRT cells expressing human ANO6, 10 μM ionomycin; for inhibition at 0.1 µM: test compound 100 nM, read-out: Inhibition Level 100 nM; for inhibition at 1 µM: test compound 1 μM, read-out: Inhibition Level 1 μM
T1 construct: expressed in transfected cells
T1 sequence (Q4KMQ2 1-931 isoform Q4KMQ2-2): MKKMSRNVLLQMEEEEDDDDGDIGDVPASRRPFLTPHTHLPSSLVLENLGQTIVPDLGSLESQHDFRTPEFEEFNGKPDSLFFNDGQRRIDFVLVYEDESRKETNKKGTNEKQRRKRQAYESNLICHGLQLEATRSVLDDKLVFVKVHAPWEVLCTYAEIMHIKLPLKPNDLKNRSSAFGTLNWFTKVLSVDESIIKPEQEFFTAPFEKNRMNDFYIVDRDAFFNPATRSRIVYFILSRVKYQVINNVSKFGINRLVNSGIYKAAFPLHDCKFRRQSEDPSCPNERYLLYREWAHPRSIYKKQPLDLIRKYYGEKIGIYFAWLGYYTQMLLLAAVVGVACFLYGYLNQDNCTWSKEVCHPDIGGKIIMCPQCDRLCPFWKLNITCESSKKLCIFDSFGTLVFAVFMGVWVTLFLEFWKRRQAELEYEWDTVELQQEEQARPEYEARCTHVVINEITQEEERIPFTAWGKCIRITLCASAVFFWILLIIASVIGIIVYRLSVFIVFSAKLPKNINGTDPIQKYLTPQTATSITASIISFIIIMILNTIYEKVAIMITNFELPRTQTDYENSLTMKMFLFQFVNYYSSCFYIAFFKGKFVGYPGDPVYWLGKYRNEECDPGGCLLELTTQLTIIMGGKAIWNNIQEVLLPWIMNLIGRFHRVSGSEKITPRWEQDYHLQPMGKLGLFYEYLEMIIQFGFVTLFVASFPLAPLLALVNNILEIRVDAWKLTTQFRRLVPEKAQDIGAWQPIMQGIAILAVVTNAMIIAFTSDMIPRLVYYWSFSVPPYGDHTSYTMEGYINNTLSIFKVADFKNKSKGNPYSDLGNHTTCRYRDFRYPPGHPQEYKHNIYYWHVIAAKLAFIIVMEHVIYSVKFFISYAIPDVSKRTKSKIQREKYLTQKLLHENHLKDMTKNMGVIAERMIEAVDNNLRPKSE
Method in brief: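 Inhibition was normalised between ionomycin-only (0%) and untreated (100%) wells, with triplicates averaged. Readout was background-corrected Lact-C2-GFP (500 nM) fluorescence from imaged cells. The cells were FRT cells stably expressing human ANO6, given compound at 1% DMSO for 10 min before a 10 min 10 μM ionomycin challenge.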

O=C(NCCC12CC3CC(CC(C3)C1)C2)c1cccc(Nc2ccc(-c3cccc(F)c3)cn2)c1 [Compound 142, N-(2-(adamantan-1-yl)ethyl)-3-((5-(3-fluorophenyl)pyridin-2-yl)amino)benzamide]
Inhibition Level (retardation time, recalcification time) [1]: A (the compounds (30 μM) having retardation time of 50 seconds or more) | inhibition at 0.1 µM [2]: ≥ 60% | inhibition at 1 µM [2]: ≥ 60%

O=C(N[C@@H]1C[C@H]1c1ccccc1)c1cccc(Nc2ccc(-c3ncccn3)cc2)c1 [Compound 171, N-((1R,2S)-2-phenylcyclopropyl)-3-((4-(pyrimidin-2-yl)phenyl)amino)benzamide]
Inhibition Level (retardation time, recalcification time) [1]: C (compounds (30 μM) having less than 20 seconds of retardation time) | inhibition at 0.1 µM [2]: < 30%

O=C(Nc1cccc(F)c1)c1cccc(Nc2ccc(-c3ccccc3)cn2)c1 [Compound 128, N-(3-fluorophenyl)-3-((5-phenylpyridin-2-yl)amino)benzamide]
Inhibition Level (retardation time, recalcification time) [1]: A (the compounds (30 μM) having retardation time of 50 seconds or more) | inhibition at 0.1 µM [2]: ≥ 60% | inhibition at 1 µM [2]: ≥ 60%

O=C(Nc1cccc(F)c1)c1cccc(Nc2ccc(-c3cnccn3)cc2)c1 [Compound 172, N-(3-fluorophenyl)-3-((4-(pyrazin-2-yl)phenyl)amino)benzamide]
Inhibition Level (retardation time, recalcification time) [1]: C (compounds (30 μM) having less than 20 seconds of retardation time) | inhibition at 0.1 µM [2]: ≥ 60%

O=C(Nc1cccc(F)c1)c1cccc(Nc2ccc(-c3ccncn3)cc2)c1 [Compound 175, N-(3-fluorophenyl)-3-((4-(pyrimidin-4-yl)phenyl)amino)benzamide]
Inhibition Level (retardation time, recalcification time) [1]: B (the compounds (30 μM) having retardation time of 20 seconds or more to less than 50 seconds) | inhibition at 0.1 µM [2]: ≥ 60%

O=C(Nc1cccc(F)c1)c1cccc(Nc2ccc(-c3cccnc3)cc2)c1 [Compound 160, N-(3-fluorophenyl)-3-((4-(pyridin-3-yl)phenyl)amino)benzamide]
Inhibition Level (retardation time, recalcification time) [1]: B (the compounds (30 μM) having retardation time of 20 seconds or more to less than 50 seconds) | inhibition at 0.1 µM [2]: ≥ 60% | inhibition at 1 µM [2]: ≥ 60%

O=C(Nc1cccc(F)c1)c1cccc(Nc2ccc(-c3ccccn3)cc2)c1 [Compound 154, N-(3-fluorophenyl)-3-((4-(pyridin-2-yl)phenyl)amino)benzamide]
Inhibition Level (retardation time, recalcification time) [1]: A (the compounds (30 μM) having retardation time of 50 seconds or more) | inhibition at 0.1 µM [2]: ≥ 60% | inhibition at 1 µM [2]: ≥ 60%

O=C(Nc1cccc([N+](=O)[O-])c1)c1cccc(Nc2ccc(-c3cccc(F)c3)cn2)c1 [Compound 141, 3-((5-(3-fluorophenyl)pyridin-2-yl)amino)-N-(3-nitrophenyl)benzamide]
Inhibition Level (retardation time, recalcification time) [1]: A (the compounds (30 μM) having retardation time of 50 seconds or more) | inhibition at 0.1 µM [2]: ≥ 60% | inhibition at 1 µM [2]: ≥ 60%

O=C(N[C@@H]1C[C@H]1c1ccccc1)c1cccc(Nc2ccc(-c3cnccn3)cc2)c1 [Compound 173, N-((1R,2S)-2-phenylcyclopropyl)-3-((4-(pyrazin-2-yl)phenyl)amino)benzamide]
Inhibition Level (retardation time, recalcification time) [1]: B (the compounds (30 μM) having retardation time of 20 seconds or more to less than 50 seconds) | inhibition at 0.1 µM [2]: < 30%

O=C(Nc1cccc(F)c1)c1cccc(Nc2ccc(-c3ncccn3)cc2)c1 [Compound 170, N-(3-fluorophenyl)-3-((4-(pyrimidin-2-yl)phenyl)amino)benzamide]
Inhibition Level (retardation time, recalcification time) [1]: B (the compounds (30 μM) having retardation time of 20 seconds or more to less than 50 seconds) | inhibition at 0.1 µM [2]: 30 to 60%

O=C(Nc1cccc(F)c1)c1cccc(Nc2ccc(-c3cncnc3)cc2)c1 [Compound 164, N-(3-fluorophenyl)-3-((4-(pyrimidin-5-yl)phenyl)amino)benzamide]
Inhibition Level (retardation time, recalcification time) [1]: C (compounds (30 μM) having less than 20 seconds of retardation time) | inhibition at 0.1 µM [2]: 30 to 60%

From patent US20230080054A1 (ILDONG PHARMACEUTICAL CO., LTD., priority 2021, published 2023)
